From PubChem BioAssay AID328 (DTP/NCI, 2004)
“And” between values parts separate entries of the source, which are not always exact repeats. Equal values may be shown once. Inconclusive results and toxic doses are left out.

Tested on: BDF1 mice, P388 leukemia ip, median survival T/C
Test: NCI In Vivo Anticancer Drug Screen. Data for tumor model P388 Leukemia (intraperitoneal) in B6D2F1 (BDF1) mice
Conditions: endpoint: median survival time, higher = longer survival
How it was run: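 In tumour-bearing mice, survival after compound treatment is set against the vehicle group and given as a quotient.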

[1] = dose: 200.0 mg/kg/injection, schedule: Q01DX009 (ip), vehicle: Klucel (hydroxypropylcellulose) (HPC)
[2] = dose: 100.0 mg/kg/injection, schedule: Q01DX009 (ip), vehicle: saline
[3] = dose: 50.0 mg/kg/injection, schedule: Q01DX005 (ip), vehicle: saline with Tween-80
[4] = dose: 200.0 mg/kg/injection, schedule: Q01DX005 (ip), vehicle: saline with Tween-80
[5] = dose: 100.0 mg/kg/injection, schedule: Q04DX003 (ip), vehicle: Klucel (hydroxypropylcellulose) (HPC)
[6] = dose: 200.0 mg/kg/injection, schedule: Q04DX003 (ip), vehicle: Klucel (hydroxypropylcellulose) (HPC)
[7] = dose: 400.0 mg/kg/injection, schedule: Q04DX003 (ip), vehicle: Klucel (hydroxypropylcellulose) (HPC)
[8] = dose: 12.5 mg/kg/injection, schedule: Q01DX009 (ip), vehicle: saline with Tween-80
[9] = dose: 50.0 mg/kg/injection, schedule: Q01DX009 (ip), vehicle: saline with Tween-80
[10] = dose: 100.0 mg/kg/injection, schedule: Q01DX009 (ip), vehicle: saline with Tween-80
[11] = dose: 200.0 mg/kg/injection, schedule: Q01DX009 (ip), vehicle: saline with Tween-80
[12] = dose: 100.0 mg/kg/injection, schedule: Q04DX003 (ip), vehicle: saline sonified
[13] = dose: 400.0 mg/kg/injection, schedule: Q04DX003 (ip), vehicle: saline sonified
[14] = dose: 50.0 mg/kg/injection, schedule: Q01DX009 (ip), vehicle: Klucel (hydroxypropylcellulose) (HPC)
[15] = dose: 100.0 mg/kg/injection, schedule: Q01DX009 (ip), vehicle: Klucel (hydroxypropylcellulose) (HPC)
[16] = dose: 100.0 mg/kg/injection, schedule: Q04DX003 (ip), vehicle: saline with Tween-80

CCSc1nc(Cl)cc(Sc2nc(N)nc3nc[nH]c23)n1
T/C (dose: 17.0 mg/kg/injection, schedule: Q01DX010 (ip), vehicle: acetone): 113 % of control | T/C (dose: 18.0 mg/kg/injection, schedule: Q01DX009 (ip), vehicle: Klucel (hydroxypropylcellulose) (HPC)): 115 % of control | T/C (dose: 26.0 mg/kg/injection, schedule: Q01DX010 (ip), vehicle: acetone): 168 % of control | T/C (dose: 40.0 mg/kg/injection, schedule: Q01DX010 (ip), vehicle: saline): 150 % of control | T/C (dose: 60.0 mg/kg/injection, schedule: Q01DX010 (ip), vehicle: saline): 165 % of control | T/C (dose: 132.0 mg/kg/injection, schedule: Q01DX010 (ip), vehicle: saline): 110 % of control | T/C [1]: 95 % of control | T/C (dose: 200.0 mg/kg/injection, schedule: Q01DX010 (ip), vehicle: saline): 90 % of control

CN(Cc1ccc(Nc2ccccc2)cc1)C1CCCCC1
T/C (dose: 50.0 mg/kg/injection, schedule: Q01DX009 (ip), vehicle: other): 113 % of control | T/C (dose: 100.0 mg/kg/injection, schedule: Q01DX009 (ip), vehicle: other): 160 % of control

C=C1C(=O)CCC1C(=O)O (stereo not drawn)
T/C [2]: 100 % of control and 109 % of control | T/C (dose: 178.0 mg/kg/injection, schedule: Q04DX003 (ip), vehicle: saline): 106 % of control | T/C (dose: 266.0 mg/kg/injection, schedule: Q04DX003 (ip), vehicle: saline): 108 % of control | T/C (dose: 400.0 mg/kg/injection, schedule: Q01DX009 (ip), vehicle: saline): 150 % of control and 154 % of control and 162 % of control | T/C (dose: 400.0 mg/kg/injection, schedule: Q04DX003 (ip), vehicle: saline): 123 % of control | T/C (dose: 600.0 mg/kg/injection, schedule: Q01DX009 (ip), vehicle: saline): 170 % of control and 182 % of control | T/C (dose: 900.0 mg/kg/injection, schedule: Q01DX009 (ip), vehicle: saline): 175 % of control

C(=C(\Cc1ccccc1)c1ccccc1)/c1ccccc1
T/C [3]: 99 % of control | T/C (dose: 100.0 mg/kg/injection, schedule: Q01DX005 (ip), vehicle: saline with Tween-80): 103 % of control | T/C [4]: 103 % of control

O=C(OC1COC(Br)C(OC(=O)c2ccccc2)C1OC(=O)c1ccccc1)c1ccccc1 (stereo not drawn)
T/C [5]: 100 % of control | T/C [6]: 95 % of control | T/C [7]: 100 % of control

CCc1cccc(CC)c1N1C(=O)C=CC1=O
T/C (dose: 1.56 mg/kg/injection, schedule: Q01DX009 (ip), vehicle: saline with Tween-80): 114 % of control | T/C (dose: 3.13 mg/kg/injection, schedule: Q01DX009 (ip), vehicle: saline with Tween-80): 100 % of control | T/C (dose: 6.25 mg/kg/injection, schedule: Q01DX009 (ip), vehicle: saline with Tween-80): 106 % of control | T/C [8]: 99 % of control

O=C(O)Cc1c[nH]c2cccc(Cl)c12
T/C [9]: 93 % of control | T/C [10]: 98 % of control | T/C [11]: 100 % of control

COc1ccc(NC2=NCCS2)cc1
T/C [9]: 109 % of control | T/C [10]: 104 % of control

CC(C)(C)OC(=O)NC(CC(Cc1ccccc1)C(=O)O)C(=O)NC(CC(Cc1ccccc1)C(=O)O)C(=O)NC(CC(Cc1ccccc1)C(=O)O)C(=O)NCC(=O)Oc1ccc([N+](=O)[O-])cc1 (stereo not drawn)
T/C [3]: 86 % of control | T/C [4]: 104 % of control

C/C(CC(c1ccccc1)N1CCc2ccccc2C1)=N/O (stereo not drawn)
T/C [12]: 104 % of control | T/C (dose: 200.0 mg/kg/injection, schedule: Q04DX003 (ip), vehicle: saline sonified): 109 % of control | T/C [13]: 90 % of control

CC1C(=O)OC2CCN3CC4OC4(COC(=O)C(C)(O)C1(C)O)C23 (stereo not drawn)
T/C [14]: 95 % of control | T/C [15]: 95 % of control | T/C [12]: 108 % of control | T/C [1]: 100 % of control | T/C [13]: 95 % of control

COC1(c2ccc([N+](=O)[O-])o2)OC1(C)C (stereo not drawn)
T/C [8]: 111 % of control | T/C (dose: 25.0 mg/kg/injection, schedule: Q01DX009 (ip), vehicle: saline with Tween-80): 118 % of control | T/C [9]: 113 % of control | T/C [10]: 111 % of control | T/C [16]: 99 % of control | T/C [11]: 117 % of control | T/C (dose: 200.0 mg/kg/injection, schedule: Q04DX003 (ip), vehicle: saline with Tween-80): 107 % of control | T/C (dose: 400.0 mg/kg/injection, schedule: Q01DX009 (ip), vehicle: saline with Tween-80): 108 % of control | T/C (dose: 400.0 mg/kg/injection, schedule: Q04DX003 (ip), vehicle: saline with Tween-80): 109 % of control

O=S(=O)(NC(=S)Nc1ccc(Cl)cc1)c1ccccc1
T/C [14]: 113 % of control | T/C [15]: 118 % of control | T/C (dose: 150.0 mg/kg/injection, schedule: Q04DX003 (ip), vehicle: Klucel (hydroxypropylcellulose) (HPC)): 113 % of control | T/C (dose: 225.0 mg/kg/injection, schedule: Q04DX003 (ip), vehicle: Klucel (hydroxypropylcellulose) (HPC)): 117 % of control | T/C (dose: 335.0 mg/kg/injection, schedule: Q04DX003 (ip), vehicle: Klucel (hydroxypropylcellulose) (HPC)): 113 % of control

CCC1(O)CC2CN(CCc3c([nH]c4ccccc34)C(C(=O)OC)(c3cc4c(cc3OC)N(C)C3C(O)(C(=O)NCCSSCCNC(=O)C5(O)C(O)C6(CC)C=CCN7CCC8(c9cc(C%10(C(=O)OC)CC%11CN(CCc%12c%10[nH]c%10ccccc%12%10)CC(O)(CC)C%11)c(OC)cc9N(C)C58)C76)C(O)C5(CC)C=CCN6CCC43C65)C2)C1 (stereo not drawn)
T/C (dose: 250.0 micrograms/kg/injection, schedule: Q04DX003 (ip), vehicle: saline): 179 % of control | T/C (dose: 432.0 micrograms/kg/injection, schedule: Q04DX003 (ip), vehicle: saline): 162 % of control | T/C (dose: 500.0 micrograms/kg/injection, schedule: Q04DX003 (ip), vehicle: saline): 185 % of control | T/C (dose: 648.0 micrograms/kg/injection, schedule: Q04DX003 (ip), vehicle: saline): 268 % of control | T/C (dose: 720.0 micrograms/kg/injection, schedule: Q04DX003 (ip), vehicle: saline): 164 % of control | T/C (dose: 1000.0 micrograms/kg/injection, schedule: Q04DX003 (ip), vehicle: saline): 224 % of control | T/C (dose: 1080.0 micrograms/kg/injection, schedule: Q04DX003 (ip), vehicle: saline): 244 % of control | T/C (dose: 1200.0 micrograms/kg/injection, schedule: Q04DX003 (ip), vehicle: saline): 171 % of control | T/C (dose: 1800.0 micrograms/kg/injection, schedule: Q04DX003 (ip), vehicle: saline): 155 % of control | T/C (dose: 2000.0 micrograms/kg/injection, schedule: Q04DX003 (ip), vehicle: saline): 221 % of control

CCCCCCCCC(=O)N(C)OC
T/C (dose: 25.0 mg/kg/injection, schedule: Q04DX003 (ip), vehicle: saline with Tween-80): 104 % of control | T/C (dose: 50.0 mg/kg/injection, schedule: Q04DX003 (ip), vehicle: saline with Tween-80): 100 % of control | T/C [16]: 100 % of control

NC(N)=NCCCCC(=O)Nc1ccc(S(N)(=O)=O)cc1
T/C (dose: 25.0 mg/kg/injection, schedule: Q01DX009 (ip), vehicle: saline): 97 % of control | T/C (dose: 50.0 mg/kg/injection, schedule: Q01DX009 (ip), vehicle: saline): 112 % of control | T/C [2]: 110 % of control

O=C(O)C(Cc1ccc(O)cc1)c1ccccc1 (stereo not drawn)
T/C [15]: 86 % of control | T/C [5]: 90 % of control | T/C [1]: 95 % of control | T/C [6]: 90 % of control | T/C (dose: 400.0 mg/kg/injection, schedule: Q01DX009 (ip), vehicle: Klucel (hydroxypropylcellulose) (HPC)): 109 % of control | T/C [7]: 95 % of control
